Measured values reported in ChEMBL document CHEMBL5226339, “Strategies for Structural Modification of Small Molecules to Improve Blood-Brain Barrier Penetration: A Recent Perspective” (J Med Chem, 2021).
pIC50: −log10 of the molar value. One block for each compound: values may come before it.

What was measured:
[1] = Ratio of AUC in Brain to plasma in mouse at 10 mg/kg, po; type: ADME, organism-based; details: brain and plasma, read-out: Ratio AUC
[2] = target: Procathepsin L (Homo sapiens, UniProt P07711); assay: Inhibition of human cathepsin L
Sequence of Procathepsin L (P07711 whole entry): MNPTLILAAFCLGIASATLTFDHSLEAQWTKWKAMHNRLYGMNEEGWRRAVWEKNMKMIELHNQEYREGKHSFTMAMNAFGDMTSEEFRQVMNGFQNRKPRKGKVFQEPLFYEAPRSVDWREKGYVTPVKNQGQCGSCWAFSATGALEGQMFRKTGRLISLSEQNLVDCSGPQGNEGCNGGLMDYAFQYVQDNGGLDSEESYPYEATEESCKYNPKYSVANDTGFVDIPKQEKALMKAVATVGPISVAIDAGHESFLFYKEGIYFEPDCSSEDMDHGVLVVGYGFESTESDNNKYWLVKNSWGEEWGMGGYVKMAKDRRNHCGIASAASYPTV

[3] = Efflux ratio of apparent permeability across basolateral to apical side over apical to basolateral side in MDCK-MDR1 cells; type: ADME, cell-based, Canis lupus familiaris; details: dog
[4] = Inhibition of Toxoplasma gondii cathepsin L
[5] = AUC in mouse brain at 48 mmol/kg, iv after 25 mins; type: ADME, organism-based; parameters: time 25 min, dose 48 mmol/Kg, route iv; details: in vivo
[6] = Cmax in mouse brain at 48 mmol/kg, iv after 25 mins; type: ADME, organism-based; parameters: dose 48 mmol/Kg, time 25 min, route iv
[7] = Apparent permeability in MDCKII-MDR1 cells; type: ADME, cell-based, Canis lupus familiaris; details: dog, MDCK-MDR1
[8] = Prodrug release in mouse assessed as unbound brain to plasma concentration of ketoprofen at 30 mg/kg, po; type: ADME, organism-based
[9] = Prodrug release in mouse assessed as nipecotic-acid concentration in brain at 15 mg/kg, iv after 30 mins; type: ADME, organism-based; details: in vivo, 0.5 h
[10] = Unbound brain-to-plasma concentration ratio in mouse at 30 mg/kg, po; type: ADME, organism-based; details: brain and plasma, read-out: K(p,uu,brain)
[11] = Prodrug release in mouse brain assessed as Cmax of ibuprofen after 60 mins; type: ADME, tissue-based; parameters: time 60 min; details: in vivo, 1 h
[12] = Prodrug release in mouse brain assessed as AUC of ibuprofen after 60 mins; type: ADME, tissue-based; parameters: time 60 min; details: in vivo, 1 h

AUC [5]: 1860 µg·min/g
Cmax [6]: 10.7 µg/g
Compound: CC(C)Cc1ccc(C(C)C(=O)O)cc1 (centres undefined) [IBUPROFEN]

Papp [7]: 26.3 ×10⁻⁶ cm/s
Compound: CC(c1cc(O)ccc1O)N(C)C.Cl (centres undefined)

Papp [7]: 23.9 ×10⁻⁶ cm/s
Compound: CC(c1cccc(O)c1O)N(C)C.Cl (centres undefined)

Kp uu [10]: 0.01
Compound: CC(C(=O)O)c1cccc(C(=O)c2ccccc2)c1 (centres undefined) [KETOPROFEN]

Papp [7]: 1.13 ×10⁻⁶ cm/s
Compound: CC(c1ccc(O)c(O)c1)N(C)C.Cl (centres undefined)

Cmax [11]: 52.6 µg/g
AUC [12]: 5870 µg·min/g
Compound: CC(C)Cc1ccc(C(C)C(=O)O[C@@H](CN(C)C)[C@H]2OC(=O)C(O)=C2O)cc1 (some centres undefined)

The next lines start with the compound.

Compound: CC(C)CCN(c1nc(C#N)nc(N2CCOCC2)n1)C(C)c1ccc(F)cc1 (centres undefined)
Kp [1]: 0.52
pIC50 [2]: 7.64
efflux ratio [3]: 0.223
pIC50 [4]: 7.04

Compound: N#Cc1nc(N2CCOCC2)nc(N(Cc2ccc(F)cc2)CC2CCCNC2)n1 (centres undefined)
Kp [1]: 0.15
pIC50 [2]: 5.92
efflux ratio [3]: 17.2
pIC50 [4]: 6.74

Compound: C[C@H](C(=O)Nc1cccc(C[C@@H](N)C(=O)O)c1)c1cccc(C(=O)c2ccccc2)c1
K(p,uu,brain) [8]: 0.13

Compound: N[C@@H](COC(=O)C1CCCNC1)C(=O)O (some centres undefined)
Drug metabolism [9]: 450 nmol/g

Compound: C[C@H](C(=O)Nc1ccc(C[C@@H](N)C(=O)O)cc1)c1cccc(C(=O)c2ccccc2)c1
K(p,uu,brain) [8]: 0.35
